Experiments:
Assay in all cases: selective drug sensitivity score (sDSS, relative to normal bone marrow) (sDSS (score)); higher = more potent and effective on the cell line relative to normal bone marrow cells
Conditions in all cases: 72 h
LC4-1 = tested on: LC4-1
MOLT-14 = tested on: MOLT-14
MHH-CALL-4 = tested on: MHH-CALL-4
NALL-1 = tested on: NALL-1
COG-LL-319h = tested on: COG-LL-319h
KASUMI-10 = tested on: KASUMI-10
ALL-PO = tested on: ALL-PO
TANOUE = tested on: TANOUE
PF-382 = tested on: PF-382
SUP-B15 = tested on: SUP-B15
COG-LL-402h = tested on: COG-LL-402h
ALL-SIL = tested on: ALL-SIL
MHH-CALL-2 = tested on: MHH-CALL-2
KASUMI-2 = tested on: KASUMI-2
COG-LL-317 = tested on: COG-LL-317
COG-LL-332h = tested on: COG-LL-332h
MOLT-4 = tested on: MOLT-4
697 = tested on: 697
NALM-6 = tested on: NALM-6
P12-ICHIKAWA = tested on: P12-ICHIKAWA
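Further: ALL cell lines in 384-well plates, five doses spanning 10,000-fold, each plate scaled between vehicle and 100 µmol/L benzalkonium chloride controls, sDSS an adapted area-under-curve metric.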

Structure (SMILES)	selective drug sensitivity score (LC4-1)	selective drug sensitivity score (MOLT-14)	selective drug sensitivity score (MHH-CALL-4)	selective drug sensitivity score (NALL-1)	selective drug sensitivity score (COG-LL-319h)	selective drug sensitivity score (KASUMI-10)	selective drug sensitivity score (ALL-PO)	selective drug sensitivity score (TANOUE)	selective drug sensitivity score (PF-382)	selective drug sensitivity score (SUP-B15)	selective drug sensitivity score (COG-LL-402h)	selective drug sensitivity score (ALL-SIL)	selective drug sensitivity score (MHH-CALL-2)	selective drug sensitivity score (KASUMI-2)	selective drug sensitivity score (COG-LL-317)	selective drug sensitivity score (COG-LL-332h)	selective drug sensitivity score (MOLT-4)	selective drug sensitivity score 697	selective drug sensitivity score (NALM-6)	selective drug sensitivity score (P12-ICHIKAWA)
Cc1c(-c2ccc(N3CCc4cccc(C(=O)Nc5nc6ccccc6s5)c4C3)nc2C(=O)O)cnn1CC12CC3CC(CC(C3)C1)C2 (top concentration 1000 nM)	-2.26	6.34	2.24	0.14	19.4	3.04	-1.86	-2.26	12.5	9.34	16.5	25.1	-1.26	1.04	25.9	9.14	23.6	-1.76	5.84	27.7
O=C(NOC[C@H](O)CO)c1ccc(F)c(F)c1Nc1ccc(I)cc1F (top concentration 1000 nM)	6.24	8.84	6.24	-4.16	2.44	-2.86	4.34	-2.46	-2.36	13.5	1.84	3.54	-0.36	10.1	-1.66	-2.26	-1.96	0.14	7.54	0.84
CO[C@@H](C)Cn1c(=O)n(C)c2cnc3ccc(-c4cncc(C(C)(C)O)c4)cc3c21 (top concentration 2500 nM)	2.68	2.08	1.08	0.48	5.48	-1.02	4.88	-5.12	5.88	6.98	5.48	4.78	6.98	12.3	0.78	4.18	3.38	9.78	3.68	1.38
Cc1cccc(CC(=O)N2CCc3c2ccc(-c2cn(C)c4ncnc(N)c24)c3F)n1 (top concentration 2500 nM)	4.72	1.22	4.22	-0.68	0.52	-0.68	0.22	2.52	3.72	7.22	-0.68	0.32	5.02	-0.68	-0.68	0.32	3.22	3.42	4.32	2.82
CNC(=O)c1ccccc1Nc1nc(Nc2ccc3c(c2OC)CCC[C@H](N2CCN(CCO)CC2)C3)ncc1Cl (top concentration 5000 nM)	2.96	1.56	-0.94	-3.34	8.86	5.66	5.76	-5.34	-2.54	3.96	-0.84	1.36	1.66	-3.24	-2.14	-1.54	-0.74	2.86	-1.04	-2.84
COc1cc2ncnc(Oc3cccc(NC(=O)Nc4cc(C(C)(C)C(F)(F)F)on4)c3)c2cc1OC (top concentration 10000 nM)	1.1	0.8	3.4	0.3	12.3	10.8	11.5	0	1.2	28.4	0.3	41.3	4.2	5.2	0	18.4	0	10.4	0	5.9
C[C@@H](Oc1cc(-n2cnc3ccc(CN4CCN(C)CC4)cc32)sc1C(N)=O)c1ccccc1C(F)(F)F (top concentration 10000 nM)	22.6	24.8	-3.18	5.82	14.7	11	22	-11.2	26.7	27.2	16.2	23.4	18.4	15	25.4	20.5	22.8	20.5	15.8	21.9
Nc1nccc(-c2c(-c3ccc(F)cc3)ncn2C2CCCCC2)n1 (top concentration 10000 nM)	3.1	0	0	0.1	2.5	2.5	3	0	0.8	2.4	0.7	1.5	4.1	12.6	4.4	3.1	0.4	4.8	0	0.1
O=C(O)c1ccc(-c2c[nH]c3ncc(-c4ccccc4)cc23)cc1C1CCCC1 (top concentration 10000 nM)	-0.94	2.46	-1.44	7.66	1.36	5.46	5.86	-1.44	-0.34	-1.44	-1.44	4.26	11.7	-1.44	2.36	2.86	-0.94	0.96	-1.44	3.46
C[C@@H]1CN(CC(=O)Nc2ccc3c(c2)Cc2cccc(-c4cc(=O)cc(N5CCOCC5)o4)c2S3)C[C@H](C)O1 (top concentration 25000 nM)	4.12	0.32	0.12	-2.18	6.72	-2.18	2.02	-2.18	0.82	-0.58	1.92	3.32	0.92	-2.08	-1.78	2.02	-0.08	0.42	2.92	-0.58

— the supplement of paper PMC8967900
